Read-outs that look alike come from different tables or passages of the source.
Tests used:
[1] = Chelation-provoked urine test, urinary lead
Method: (§1) The terms “diagnostic provocation” and “chelation-provoked urine tests” and related terms refer to a procedure whereby the patient is administered one of more dosages of chelators, after which the patient's urine is collected for a defined period of time. The collected urine is analyzed for metal content, the metal having been removed from the patient's body by the chelators. The results of this procedure can indicate which metals are present in the patient's body and the approximate levels of the metals, which is subsequently used in designing a course of chelation therapy.
(§2) The metals may be measured with or without prior chelation provocation. The standard values accepted by medical laboratories are measured without chelation provocation. Treatment with chelation medication mobilizes metal stores within in the body to be detected in the urine, thus values obtained post-provocation will be increased.

[2] = Chelation-provoked urine test, metals revealed (in words); conditions: for metals excreted on provocation: Case 9, postpartum
Method: as §1, §2

[3] = Case 14
Method: as §1, §2

[4] = Chelation-provoked urine test, urinary uranium; format: in vivo, human; conditions: for urinary uranium, times the reference range: Case 9
Method: as §1, §2

[5] = Chelation-provoked urine test, urinary cadmium; format: in vivo, human
Method: as §1, §2

[6] = Chelation-provoked urine test, urinary tin; format: in vivo, human; conditions: for urinary tin: Case 14
Method: as §1, §2

[7] = Chelation-provoked urine test, urinary tungsten; format: in vivo, human; conditions: Case 7, 6 hour urine
Method: as §1, §2

[8] = Chelation-provoked urine test, urinary nickel; format: in vivo, human
Method: as §1, §2

[9] = Case 14; remark: listed apart in the source
Method: as §1, §2

[10] = not given; remark: listed apart in the source
[11] = Maternal chelation treatment, pregnancy, child and patient outcome; format: in vivo, human; conditions: for chronic fatigue / neurological development of the baby: Case 5; for chronic fatigue: calcium EDTA + vitamin C IV together with oral DMSA; for neurological development of the baby: parent treated preconceptionally with calcium EDTA + vitamin C IV and oral DMSA
[12] = Case 5
Method: as §1, §2

[13] = Case 5, DMPS chelation provocation, before treatment
[14] = Case 5, DMPS provocation, previously (before treatment)
[15] = Case 14, DMPS provocation October 2003, before treatment
[16] = Case 14, DMPS series, follow up October 2005 after oral DMSA and essential daily defense
[17] = Case 14, after series of intravenous DMPS chelation treatments October 2003 to May 2004
[18] = Case 7, one 300-mg capsule DMPS, 6 hour urine
[19] = DMPS provocation October 2003, before treatment
[20] = DMPS series, follow up October 2005 after oral DMSA and essential daily defense
[21] = after series of intravenous DMPS chelation treatments October 2003 to May 2004
[22] = Case 14, EDTA series, June 2004 after intravenous EDTA and DMPS chelation treatments
[23] = Case 14, EDTA series, long-term follow up October 2005 after a little DMSA with essential daily defense
[24] = Case 14, intravenous EDTA provocation January 2004, during the treatment period
[25] = Case 5, EDTA provocation, before treatment
[26] = Case 5, EDTA provocation, previously (before treatment)
[27] = Case 13, 3 grams EDTA and 3 grams vitamin C intravenous push, 6 hour collection
[28] = 3 grams calcium EDTA in 100 cc NS over 30 minutes, 6 hour urine
[29] = EDTA series, June 2004 after intravenous EDTA and DMPS chelation treatments
[30] = EDTA series, long-term follow up October 2005 after a little DMSA with essential daily defense
[31] = intravenous EDTA provocation January 2004, during the treatment period
[32] = Case 2, oral DMSA 250 mg three times a day, 24 hour urine
[33] = Case 4, after 4 months oral DMSA, 4 x 250 mg three times daily, 3 days per week
[34] = Case 4, four capsules DMSA 250 mg, 6 hour urine, before treatment
[35] = Case 7, one 250-mg capsule DMSA orally, 6 hour urine
[36] = DMSA 1000 mg PO x1, 6 hour urine

## O=S(=O)(O)CC(S)CS (stereo not shown) [DMPS, Dimercaptopropanesulfonic Acid]
[13]
  urinary antimony: 0.84 (normal <0.14) mcg/g creatinine
[14]
  urinary antimony, times normal: 6 × normal
[15]
  urinary antimony: 0.48 (normal <0.14) mcg/g creatinine
[16]
  urinary antimony: 0.18 mcg/g creatinine
[17]
  urinary antimony: 0.05 mcg/g creatinine
[1]; [13]
  urinary lead: 6.39 (normal <1.41) mcg/g creatinine
[1]; [14]
  urinary lead, times normal: 4 × normal
[1]; [18]
  urinary lead: 4.6 (normal <1.41)
[1]; [15]
  urinary lead: 7.9 (normal <1.41) mcg/g creatinine
[1]; [16]
  urinary lead: 2.6 mcg/g creatinine
[1]; [17]
  urinary lead: 0.9 mcg/g creatinine
[2]; Case 10, DMPS 300 mg PO x1, 6 hour urine
  metals revealed on provocation: elevated levels of lead, mercury, aluminum, antimony, cadmium, nickel, tin, tungsten and uranium
[2]; Case 12, DMPS 300 mg PO x2, 6 hour urine
  metals revealed on provocation: marked elevation of nickel as well as abnormally elevation of arsenic, cadmium and lead
[3]; [19]
  urinary thorium: 0 (normal <0.124) mcg/g creatinine
[3]; [20]
  urinary thorium: 0 mcg/g creatinine
[3]; [21]
  urinary thorium: 0.019 mcg/g creatinine
[4]; [18]
  urinary uranium: 0.034 (normal <0.013)
[4]; [15]
  urinary uranium: 0.042 (normal <0.026) mcg/g creatinine
[4]; [16]
  urinary uranium: 3 mcg/g creatinine
[4]; [17]
  urinary uranium: 0 mcg/g creatinine
[5]; [15]
  urinary cadmium: 0.82 (normal <0.64) mcg/g creatinine
[5]; [16]
  urinary cadmium: 0.17 mcg/g creatinine
[5]; [17]
  urinary cadmium: 0.16 mcg/g creatinine
[6]; [19]
  urinary tin: 10.4 (normal <2.04) mcg/g creatinine
[6]; [20]
  urinary tin: 3.03 mcg/g creatinine
[6]; [21]
  urinary tin: 0.4 mcg/g creatinine
[7]; one 300-mg capsule DMPS
  urinary tungsten: 7.07 (normal <0.34)
[8]; [18]
  urinary nickel: 132 (normal <9.5)
[8]; [15]
  urinary nickel: 9.3 (normal <9.5) mcg/g creatinine
[8]; [16]
  urinary nickel: 0.7 mcg/g creatinine
[8]; [17]
  urinary nickel: 3.2 mcg/g creatinine
[9]; [19]
  urinary arsenic: 159 (normal <50) mcg/g creatinine
[9]; [20]
  urinary arsenic: 34 mcg/g creatinine
[9]; [21]
  urinary arsenic: 20 mcg/g creatinine
[10]; [13]
  urinary mercury: 38.55 (normal <6.97) mcg/g creatinine
[10]; [14]
  urinary mercury, times normal: 5 × normal
[10]; [15]
  urinary mercury: 7.3 (normal <2.14) mcg/g creatinine
[10]; [16]
  urinary mercury: 4.6 mcg/g creatinine
[10]; [17]
  urinary mercury: 6 mcg/g creatinine

## O=C([O-])CN(CCN(CC(=O)[O-])CC(=O)[O-])CC(=O)[O-].[Ca+2].[Na+].[Na+] [calcium EDTA]
[11]
  chronic fatigue: chronic fatigue improved
  neurological development of the baby: above average neurological development

## CC(=O)N[C@@H](CS)C(=O)O [NAC, N-Acetyl-Cysteine]
[11]; Case 3, 500 mg oral NAC per day throughout pregnancy, also vitamin C and selenium, previous child with attention deficit disorder
  outcome of subsequent child: did not have attention deficit disorder

## O=C(O)CN(CCN(CC(=O)O)CC(=O)O)CC(=O)O [EDTA, Ethylenediamine Tetra-acetic Acid]
[22]
  urinary antimony: 0.15 mcg/g creatinine
[23]
  urinary antimony: 0.09 mcg/g creatinine
[24]
  urinary antimony: 0.18 mcg/g creatinine
[1]; [25]
  urinary lead: 25.14 (normal <1.41) mcg/g creatinine
[1]; [26]
  urinary lead, times normal: 18 × normal
[1]; Case 5, repeat EDTA provocation after 3 g calcium EDTA + 3 g vitamin C IV two times per week and DMSA 500 mg per day orally
  urinary lead, times normal: 8 × normal
[1]; [27]
  urinary lead: 6.15 mcg/g creatinine
[1]; [22]
  urinary lead: 5.5 mcg/g creatinine
[1]; [23]
  urinary lead: 7.97 mcg/g creatinine
[1]; [24]
  urinary lead: 4.6 mcg/g creatinine
[2]; [28]
  metals excreted on provocation: significant excretion of lead, mercury, cadmium and uranium
[2]; Case 11, 3 grams calcium EDTA in 100 cc normal saline IV over 30 minutes, 6 hour urine
  metals revealed on provocation: elevated levels of lead, mercury, aluminum, cadmium, gadolinium, gallium, tin, tungsten, and uranium
[3]; [29]
  urinary thorium: 0.06 mcg/g creatinine
[3]; [30]
  urinary thorium: 0 mcg/g creatinine
[3]; [31]
  urinary thorium: 0.22 mcg/g creatinine
[4]; [25]
  urinary uranium: 0.33 (normal <0.013) mcg/g creatinine
[4]; [28]
  urinary uranium, times the reference range: > 40 × the reference range
[4]; [23]
  urinary uranium: 0.012 mcg/g creatinine
[5]; [25]
  urinary cadmium: 3.18 (normal <0.76) mcg/g creatinine
[5]; [27]
  urinary cadmium: 0.86 mcg/g creatinine
[5]; [22]
  urinary cadmium: 1.75 mcg/g creatinine
[5]; [23]
  urinary cadmium: 2.66 mcg/g creatinine
[5]; [24]
  urinary cadmium: 1.59 mcg/g creatinine
[6]; [29]
  urinary tin: 0.3 mcg/g creatinine
[6]; [30]
  urinary tin: 0.4 mcg/g creatinine
[6]; [31]
  urinary tin: 0.6 mcg/g creatinine
[8]; [25]
  urinary nickel: 36.9 (normal <9.5) mcg/g creatinine
[8]; [26]
  urinary nickel, times normal: 4 × normal
[8]; Case 5, repeat EDTA provocation after calcium EDTA + vitamin C IV and oral DMSA treatment
  urinary nickel, times normal: 3 × normal
[8]; [22]
  urinary nickel: 30 mcg/g creatinine
[8]; [23]
  urinary nickel: 26 mcg/g creatinine
[8]; [24]
  urinary nickel: 41 mcg/g creatinine
[12]; EDTA provocation, before treatment
  urinary aluminum: 176.8 (normal <98.7) mcg/g creatinine
[12]; EDTA provocation, previously (before treatment)
  urinary aluminum, times normal: 2 × normal
[12]; repeat EDTA provocation after calcium EDTA + vitamin C IV and oral DMSA treatment
  urinary aluminum, times normal: 0.2 × normal
[9]; [29]
  urinary arsenic: 32 mcg/g creatinine
[9]; [30]
  urinary arsenic: 46 mcg/g creatinine
[9]; [31]
  urinary arsenic: 90 mcg/g creatinine
[11]; Case 8, oral EDTA 3000 mg per day with vitamin C, selenium and garlic
  child outcome after delivery: healthy and neurologically normal
[11]; Case 8, parent with lead and mercury, oral EDTA 3000 mg per day with vitamin C 5000 mg per day, selenium 200 micrograms three times per day, garlic 6000 mg per day
  delivery outcome: normal delivery with no evidence of fetal distress
[11]; Case 13, child, parents had ten intravenous EDTA chelations
  neurological development of the child: admirable neurological development
[10]; [27]
  urinary mercury: 3.09 mcg/g creatinine
[10]; [22]
  urinary mercury: 0 mcg/g creatinine
[10]; [23]
  urinary mercury: 9.4 mcg/g creatinine
[10]; [24]
  urinary mercury: 0 mcg/g creatinine

## O=C(O)C(S)C(S)C(=O)O (stereo not shown) [DMSA, Dimercaptosuccinic Acid]
[1]; Case 1, after 15 cycles DMSA three capsules three times a day, three days a week
  follow-up chelation-provoked urine, total body lead: a decrease in total body lead
[1]; Case 1, oral DMSA 250 mg three times a day, 24 hour urine
  urinary lead concentration on provocation: 20 mcg/g creatinine
[1]; [32]
  urinary lead concentration after provocation: 14 mcg/g creatinine
[1]; [33]
  urinary lead, follow up provocation: 1.34 mcg/g creatinine
[1]; [34]
  provoked urinary lead: 13.6 mcg/g creatinine
[1]; [35]
  urinary lead: 4.79 (normal <1.41) mcg/g creatinine
[2]; Case 6, oral DMSA challenge three days after delivery
  metals revealed by chelation-provoked urine test: presence of both lead and mercury
[2]; [36]
  metals excreted on provocation: excretion of a number of metals, including lead, mercury, cadmium and uranium
[2]; Case 10, DMSA 250 mg PO x1, 6 hour urine
  metals revealed on challenge: elevated amounts of lead, aluminum, antimony, barium, nickel, gallium, tin, tungsten, and uranium
[2]; Case 11, 1000 mg DMSA orally x1, 6 hour urine
  metals revealed on provocation: elevated levels of lead, mercury, tin, uranium and tungsten
[4]; [35]
  urinary uranium: 0.05 (normal <0.031) mcg/g creatinine
[4]; [36]
  urinary uranium, times the reference range: > 100 × the reference range
[5]; [33]
  urinary cadmium, follow up provocation: 0.18 mcg/g creatinine
[5]; [34]
  provoked urinary cadmium: 1.79 mcg/g creatinine
[6]; [32]
  urinary tin after provocation: 9 mcg/g creatinine
[6]; [33]
  urinary tin, follow up provocation: 0.9 mcg/g creatinine
[6]; [34]
  provoked urinary tin: 12.5 mcg/g creatinine
[7]; one 250-mg capsule DMSA orally
  urinary tungsten: 6.41 (normal <0.34) mcg/g creatinine
[8]; [35]
  urinary nickel: 77 (normal <9.5) mcg/g creatinine
[11]; Case 4, during 4 months oral DMSA
  chronic fatigue during treatment: chronic fatigue resolved
[11]
  chronic fatigue: chronic fatigue improved
  neurological development of the baby: above average neurological development

Source: patent US9700533B2, “Maternal chelation for embryo, fetal and infant benefit” (priority 2005, dated 2017)
